# Test results: patent EP3785697A1, “COSMETIC COMPOSITIONS COMPRISING PIPERLONGUMINE” (Unilever N.V., priority 2019, dated 2021)
# How the values were obtained:
# [1] = 25°C; cited from earlier work
# [2] = in vitro; details: human, oral keratinocytes
# Protocol: (§1) HOKs (Passage 4-6) were seeded in 96 well-plates at the density of 2 x 10^4 cells / well overnight. On the experimental day the cells were treated with heat killed P.gingivalis and single concentration or a combination of piperlongumine and L-cystine at different doses. After 24 hours, cell viability was measured with cell counting kit-8.
# [3] = test system: IL-6; experiment: Human immune cell line THP-1 in vitro assay, IL-6 measured by ELISA in supernatant; format: cell-based
# Protocol: (§2) In this assay, the concentration of IL-6 (Interleukin-6) and the % cell viability are measured. Widening of therapeutic window is indicated by the concentration of Interleukin-6 (IL-6) as measured on the Human Immune cell Line using the THP-1 invitro assay in pg/ml and the % cell viability of THP-1 cells.
# (§3) Cells were differentiated in 24-well plates at the density of 5 x 10^5 cells / well with 100 nM PMA for 72 hours. Cells were then co-treated with E.coli lipopolysaccharides (LPS) and single concentration or a combination of piperlongumine and L-cystine at different doses. After 24 hours, the supernatants were collected for measurement of interleukin (IL)-6 as a pro-inflammatory biomarker using enzyme-linked immunosorbent assay (ELISA).
# [4] = test system: Human oral keratinocytes (HOK); experiment: Human oral keratinocytes (HOK) in vitro assay, cell viability by cell counting kit-8; details: Table 3; Piperlongumine 15 µM, HOKs treated with heat killed P.gingivalis, 24 hours; Control 100; 1440 min, 15 µM
# Protocol: as §1
# [5] = as above; details: human, oral keratinocytes, Cell viability (%), Table 3, Piperlongumine 15 µM, HOKs treated with heat killed P.gingivalis, Control 100
# Protocol: as §1
# [6] = Human immune cell line THP-1 in vitro assay, cell viability; details: thp-1 cells, Cell viability (%)
# Protocol: as §2, §3
# [7] = test system: THP-1 cells; details: human, 24 h, 100 µM
# Protocol: as §2, §3
compound,measurement,setting,value
N[C@@H](CSSC[C@H](N)C(=O)O)C(=O)O [L-cystine],Solubility in water,[1],112 µg/mL
same,"viability at 24 h, 50 µM",[2],102%
same,"viability at 24 h, 100 µM",[2],109%
same,Concentration of IL-6,"[3]; Table 1, L-cystine 100 µM, co-treated with E.coli LPS, 24 hours, Control 98, LPS alone 2252",1896 pg/mL
"COc1cc(/C=C/C(=O)N2CCC=CC2=O)cc(OC)c1OC [Piperlongumine, 5,6-dihydro-1-[(2E)-1-oxo-3-(3,4,5-trimethoxyphenyl)-2-propenyl]-2(1 H)-pyridinone]",Cell viability (%),[4],63.38%
same,"viability at 24 h, 15 µM",[5],63.4%
same,"viability at 24 h, 5 µM","[6]; Table 1, Piperlongumine 5 µM, co-treated with E.coli LPS, 24 hours, Control 100, LPS alone 91",100%
same,"viability at 24 h, 10 µM","[6]; Table 1, Piperlongumine 10 µM, co-treated with E.coli LPS, 24 hours, Control 100, LPS alone 91",74%
same,"viability at 24 h, 10 µM","[6]; Table 2, Piperlongumine 10 µM, Control 100, LPS alone 86",39%
same,Concentration of IL-6,"[3]; Table 1, Piperlongumine 5 µM, co-treated with E.coli LPS, 24 hours, Control 98, LPS alone 2252",103 pg/mL
same,Concentration of IL-6,"[3]; Table 1, Piperlongumine 10 µM, co-treated with E.coli LPS, 24 hours, Control 98, LPS alone 2252",117 pg/mL
same,Concentration of IL-6,"[3]; Table 2, Piperlongumine 10 µM, Control 122, LPS alone 3953",91 pg/mL
Vitamin E [reference compound],Cell viability (%),[7],73%
same,Concentration of IL-6,"[3]; Table 2, Vitamin E 100 µM, Control 122, LPS alone 3953",2998 pg/mL
